Source: patent publication US5185320A, “O^56 -alkyl derivatives of aglycone and pseudo aglycones of teicoplanin” (Gruppo Lepetit S.p.A., priority 1989, dated 1993)

Legend:
Type in all cases: cell-based
Settings in all cases: inoculum about 10^4 CFU/ml, 18-24 h at 37° C.
[1] = system: Staph. haemolyticus L 602; experiment: MIC, standard dilution test, Staph. haemolyticus L 602
Description: (§1) ISOSENSITEST broth (Oxoid) and TOLLD-HEWITT broth (Difco) are used for growing staphylococci and streptococci, respectively. Broth cultures are diluted so that the final inoculum is about 10^4 colony forming units/ml (CFU/ml).

[2] = system: Proteus vulgaris ATCC 881; experiment: MIC, standard dilution test, Proteus vulgaris ATCC 881
Description: as §1

Strep. pyogenes C 203 = experiment: MIC, standard dilution test, Strep. pyogenes C 203
Description: as §1

Strep. pneumoniae UC41 = experiment: MIC, standard dilution test, Strep. pneumoniae UC41
Description: as §1

Staph. aureus Tour L 165 = experiment: MIC, standard dilution test, Staph. aureus Tour L 165
Description: as §1

Strep. mitis L 796 = experiment: MIC, standard dilution test, Strep. mitis L 796
Description: as §1

[3] = system: Staph. epidermidis ATCC 12228; experiment: MIC, standard dilution test, Staph. epidermidis ATCC 12228
Description: as §1

[4] = system: Strep. faecalis ATCC 7080; experiment: MIC, standard dilution test, Strep. faecalis ATCC 7080
Description: as §1

[5] = system: Neisseria gonorrhoeae ISM68/126; experiment: MIC, standard dilution test, Neisseria gonorrhoeae ISM68/126
Description: as §1

[6] = system: Pseudomonas aeruginosa ATCC 10145; experiment: MIC, standard dilution test, Pseudomonas aeruginosa ATCC 10145
Description: as §1

[7] = system: Haemophilus influenzae ATCC 19418; experiment: MIC, standard dilution test, Haemophilus influenzae ATCC 19418
Description: as §1

[8] = system: Escherichia coli SKF 12140; experiment: MIC, standard dilution test, Escherichia coli SKF 12140
Description: as §1

| SMILES | Minimal inhibitory concentration (MIC) [1] | Minimal inhibitory concentration (MIC) [2] | Minimal inhibitory concentration (MIC) (Strep. pyogenes C 203) | Minimal inhibitory concentration (MIC) (Strep. pneumoniae UC41) | Minimal inhibitory concentration (MIC) (Staph. aureus Tour L 165) | Minimal inhibitory concentration (MIC) (Strep. mitis L 796) | Minimal inhibitory concentration (MIC) [3] | Minimal inhibitory concentration (MIC) [4] | Minimal inhibitory concentration (MIC) [5] | Minimal inhibitory concentration (MIC) [6] | Minimal inhibitory concentration (MIC) [7] | Minimal inhibitory concentration (MIC) [8] |
| --- | --- | --- | --- | --- | --- | --- | --- | --- | --- | --- | --- | --- |
| COC(=O)C1NC(=O)C2NC(=O)C(NC(=O)C3NC(=O)C4NC(=O)C(Cc5ccc(c(Cl)c5)Oc5cc3cc(c5OCCCCN)Oc3ccc(cc3Cl)C2O[C@@H]2O[C@H](CO)[C@@H](O)[C@H](O)[C@H]2NC(C)=O)NC(=O)C(N)c2ccc(O)c(c2)Oc2cc(O)cc4c2)c2ccc(O)c(c2)-c2c(O[C@H]3O[C@H](CO)[C@@H](O)[C@H](O)[C@@H]3O)cc(O)cc21 (stereo partly drawn) [Compound 10, O^56-(4-aminobutyl)teicoplanin pseudoaglycone methyl ester] | 16 | > 128 | 0.125 | 1 | 2 | 1 | 4 | 4 | > 128 | > 128 | > 128 | > 128 |
| COC(=O)C1NC(=O)C2NC(=O)C(NC(=O)C3NC(=O)C4NC(=O)C(Cc5ccc(c(Cl)c5)Oc5cc3cc(c5OCCBr)Oc3ccc(cc3Cl)C2O)NC(=O)C(N)c2ccc(O)c(c2)Oc2cc(O)cc4c2)c2ccc(O)c(c2)-c2c(O)cc(O)cc21 (stereo not drawn) [Compound 11, O^56-(2-bromoethyl)deglucoteicoplanin methyl ester] | 2 | > 128 | 0.125 | 0.25 | 0.5 | 0.25 | 0.125 | 1 | > 128 | > 128 | 64 | 64 |
| N#CCOC(=O)C1NC(=O)C2NC(=O)C(NC(=O)C3NC(=O)C4NC(=O)C(Cc5ccc(c(Cl)c5)Oc5cc3cc(c5OCC#N)Oc3ccc(cc3Cl)C2O)NC(=O)C(N)c2ccc(O)c(c2)Oc2cc(O)cc4c2)c2ccc(O)c(c2)-c2c(O)cc(O)cc21.O=C(O)C(F)(F)F (stereo not drawn) [Compound 12, O^56 -(cyanomethyl)deglucoteicoplanin cyanomethyl ester trifluoroacetate salt] | 1 | > 128 | 0.125 | 0.125 | 0.125 | 0.125 | 0.063 | 1 | > 128 | > 128 | 64 | > 128 |
| COC(=O)C1NC(=O)C2NC(=O)C(NC(=O)C3NC(=O)C4NC(=O)C(Cc5ccc(c(Cl)c5)Oc5cc3cc(c5OCCN3CCCC3)Oc3ccc(cc3Cl)C2O)NC(=O)C(N)c2ccc(O)c(c2)Oc2cc(O)cc4c2)c2ccc(O)c(c2)-c2c(O)cc(O)cc21.Cl.Cl (stereo not drawn) [Compound 13, O^56-[2-(1-pyrrolidinyl)ethyl]deglucoteicoplanin methyl ester dihydrochloride] | 0.5 | 128 | 0.125 | 0.25 | 0.125 | 0.125 | 0.25 | 0.125 | 32 | 64 | 64 | 8 |
| COC(=O)C1NC(=O)C2NC(=O)C(NC(=O)C3NC(=O)C4NC(=O)C(Cc5ccc(c(Cl)c5)Oc5cc3cc(c5OCCN3CCOCC3)Oc3ccc(cc3Cl)C2O)NC(=O)C(N)c2ccc(O)c(c2)Oc2cc(O)cc4c2)c2ccc(O)c(c2)-c2c(O)cc(O)cc21.Cl.Cl (stereo not drawn) [Compound 14, O^56-[2-(1-morpholinyl)ethyl]deglucoteicoplanin methyl ester dihydrochloride] | 2 | > 128 | 0.25 | 0.125 | 0.25 | 0.125 | 0.125 | 0.125 | 64 | > 128 | 64 | 32 |
| NCCNCCOc1c2cc3cc1Oc1ccc(cc1Cl)C(O)C1NC(=O)C(NC(=O)C3NC(=O)C3NC(=O)C(Cc4ccc(c(Cl)c4)O2)NC(=O)C(N)c2ccc(O)c(c2)Oc2cc(O)cc3c2)c2ccc(O)c(c2)-c2c(O)cc(O)cc2C(C(=O)NCCN)NC1=O (stereo not drawn) [Compound 15, O^56-[2-(1-ethylendiaminyl)ethyl]deglucoteicoplanin ethylenediamine amide] | 0.25 | 64 | 0.063 | 0.125 | 0.125 | 0.25 | 0.125 | 0.25 | 64 | 64 | 128 | 8 |
| NC1C(=O)NC2Cc3ccc(c(Cl)c3)Oc3cc4cc(c3OC3CCOC3=O)Oc3ccc(cc3Cl)C(O)C3NC(=O)C(NC(=O)C4NC(=O)C(NC2=O)c2cc(O)cc(c2)Oc2cc1ccc2O)c1ccc(O)c(c1)-c1c(O)cc(O)cc1C(C(=O)O)NC3=O (stereo not drawn) [Compound 16, O^56-(tetrahydro-2-oxo-3-furanyl)deglucoteicoplanin] | 4 | > 128 | 0.5 | 0.25 | 0.125 | 0.5 | 0.25 | 0.5 | 64 | > 128 | > 128 | > 128 |
| Cl.NC1C(=O)NC2Cc3ccc(c(Cl)c3)Oc3cc4cc(c3OCCBr)Oc3ccc(cc3Cl)C(O)C3NC(=O)C(NC(=O)C4NC(=O)C(NC2=O)c2cc(O)cc(c2)Oc2cc1ccc2O)c1ccc(O)c(c1)-c1c(O)cc(O)cc1C(C(=O)OCCBr)NC3=O (stereo not drawn) [Compound 17, O^56-(2-bromoethyl)deglucoteicoplanin 2-bromoethyl ester hydrochloride salt] | 4 | > 128 | 0.125 | 0.5 | 0.25 | 0.25 | 0.125 | 0.125 | > 128 | > 128 | > 128 | > 128 |
| NC1C(=O)NC2Cc3ccc(c(Cl)c3)Oc3cc4cc(c3OCc3ccccc3)Oc3ccc(cc3Cl)C(O)C3NC(=O)C(NC(=O)C4NC(=O)C(NC2=O)c2cc(O)cc(c2)Oc2cc1ccc2O)c1ccc(O)c(c1)-c1c(O)cc(O)cc1C(C(=O)OCc1ccccc1)NC3=O (stereo not drawn) [Compound 20, O^56 -phenylmethyldeglucoteicoplanin phenylmethyl ester] | 4 | > 128 | 0.125 | 0.25 | 0.5 | 0.125 | 0.25 | 0.5 | > 128 | > 128 | > 128 | > 128 |
| NC1C(=O)NC2Cc3ccc(c(Cl)c3)Oc3cc4cc(c3OC3CCOC3=O)Oc3ccc(cc3Cl)C(O)C3NC(=O)C(NC(=O)C4NC(=O)C(NC2=O)c2cc(O)cc(c2)Oc2cc1ccc2O)c1ccc(O)c(c1)-c1c(O)cc(O)cc1C(C(=O)OCc1ccccc1)NC3=O (stereo not drawn) [Compound 21, O^56-(tetrahydro-2-oxo-3-furanyl)deglucoteicoplanin phenylmethyl ester] | 4 | > 128 | 0.125 | 0.25 | 2 | 0.25 | 1 | 2 | > 128 | > 128 | > 128 | > 128 |
